# From patent US8445505B2 (IRM LLC, priority 2008, dated 2013)
# Molecular target: IGF1R Ba/F3 (Homo sapiens, UniProt P08069)
# Assay: Ba/F3 Cell Viability Inhibition Assay (Tel-TK transformed Ba/F3 lines)
# Type: cell-based, murine
# Parameters: the printed alternative
# Settings: Tel-TK (IGF1R) transformed Ba/F3 cells, 48 hours incubation, cell viability (Britelite luminescence)
# Excerpt: Ba/F3 is a murine IL-3-dependent pro-B lymphoma cell line. Parental Ba/F3 cells are used to generate a panel of sublines whose proliferation and survival is rendered IL-3-independent by stable transduction with individual tyrosine kinases activated by fusion with the amino-terminal portion of TEL (amino acid 1-375) or BCR. In order to generate Ba/F3 cell lines transformed by Tel-Tyrosine Kinase (TK) fusions, parental Ba/F3 cells are infected with a retrovirus harboring each TEL-fusion kinase and subjected to puromycin selection and IL-3 withdrawal to obtain IL-3-independent, transformed Ba/F3 cells.
# Each transformed Ba/F3 cells are cultured in RPMI-1640 media (Gibco Cat #11875093, Carlsbad, Calif.) supplemented with 10% FBS (Hyclone Cat #SV30014.03, Logan, Utah), 4.5 g/L glucose (Sigma #G5400, St.Louis, Mo.), 1.5 g/L sodium bicarbonate (Biowhittaker #17-613E, Walkersville, Md.) and Pen/Strep (Gibco #10378-016, Carlsbad, Calif.). Cells are splitted twice weekly.
# The potency of test compounds against various Tel-TK transformed Ba/F3 lines is determined as follows. Exponentially growing BaF3 Tel-TK cells are diluted in fresh medium to 75,000 cells/mL and seeded into 384-well plates (3750 cells/well) at 50 μL/well using a gill liquid dispenser (BioTek, Winooski, Vt., USA). Duplicate plates are run for each cell line. Test and control compounds are serially diluted with DMSO and arrayed in a polypropylene 384-well plate. 50 nL of compound is transferred into the assay plates using a pin-transfer device, and the plates are incubated at 37° C. (5% CO2) for 48 hours. 25 μL Britelite (Perkin Elmer) is added and luminescence is quantified using Analyst GT (Molecular Devices). Custom curve-fitting software is used to produce a logistic fit of percent cell viability as a function of the logarithm of inhibitor concentration. The IC50 is interpolated as the concentration of compound needed to reduce cell viability to 50% of a DMSO control. Parental Ba/F3 cells that are maintained and cultured in presence of IL-3 (1 ng/ml in final) are diluted in fresh medium containing IL-3 (1 ng/ml in final) to 75,000 cells/mL following the same procedure as described above.
# IGF1R Ba/F3, sequence (P08069 999-1274 limits assumed): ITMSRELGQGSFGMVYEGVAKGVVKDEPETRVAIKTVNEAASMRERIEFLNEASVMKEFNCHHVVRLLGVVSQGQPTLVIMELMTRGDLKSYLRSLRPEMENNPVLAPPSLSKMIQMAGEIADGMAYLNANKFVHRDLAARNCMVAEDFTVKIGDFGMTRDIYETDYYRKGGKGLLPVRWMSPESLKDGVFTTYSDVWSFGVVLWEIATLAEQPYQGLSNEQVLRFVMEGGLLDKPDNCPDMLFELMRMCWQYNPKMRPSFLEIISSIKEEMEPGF
row,Structure (SMILES),IC50 [nM]
1,"Cc1cc(Nc2nc(Nc3cc(C)c(C4CCC(=NO)CC4)cc3C)ncc2Cl)n[nH]1 (stereo not shown) [Compound 33, 4-(4-(5-chloro-4-(5-methyl-1H-pyrazol-3-ylamino)pyrimidin-2-ylamino)-2,5-dimethylphenyl)cyclohexanone oxime]",15
2,"CO/N=C(\C)c1cc(C)c(Nc2ncc(Cl)c(Nc3cc(C)[nH]n3)n2)cc1C [Compound 34, 1-(4-(5-chloro-4-(5-methyl-1H-pyrazol-3-ylamino)pyrimidin-2-ylamino)-2,5-dimethylphenyl)ethanone O-methyl oxime]",269
3,"C/C(=N\OCCN(C)C)c1cc(C)c(Nc2ncc(Cl)c(Nc3cc(C)[nH]n3)n2)cc1C [Compound 35, 1-(4-(5-chloro-4-(5-methyl-1H-pyrazol-3-ylamino)pyrimidin-2-ylamino)-2,5-dimethylphenyl)ethanone O-2-(dimethylamino)ethyl oxime]",121
4,"C/C(=N\OCCN1CCOCC1)c1cc(C)c(Nc2ncc(Cl)c(Nc3cc(C)[nH]n3)n2)cc1C [Compound 36, 1-(4-(5-chloro-4-(5-methyl-1H-pyrazol-3-ylamino)pyrimidin-2-ylamino)-2,5-dimethylphenyl)ethanone O-2-morpholinoethyl oxime]",187
5,"Cc1cc(Nc2nc(Nc3cc(C)c([C@H]4CC[C@H](N5CCOCC5)CC4)cc3C)ncc2Cl)n[nH]1 [Compound 37, 5-chloro-N^2-(2,5-dimethyl-4-(4-trans-morpholinocyclohexyl)phenyl)-N^4-(5-methyl-1H-pyrazol-3-yl)pyrimidine-2,4-diamine]",11
6,"Cc1cc(Nc2nc(Nc3cc(C)c([C@H]4CC[C@@H](N5CCOCC5)CC4)cc3C)ncc2Cl)n[nH]1 [Compound 38, 5-chloro-N^2-(2,5-dimethyl-4-(4-cis-morpholinocyclohexyl)phenyl)-N^4-(5-methyl-1H-pyrazol-3-yl)pyrimidine-2,4-diamine]",9
7,"Cc1cc(Nc2nc(Nc3cc(C)c(CN4CCOCC4)cc3C)ncc2Cl)n[nH]1 [Compound 39, 5-Chloro-N^2-(2,5-dimethyl-4-(morpholinomethyl)phenyl)-N^4-(5-methyl-1H-pyrazol-3-yl)pyrimidine-2,4-diamine]",151
8,"Cc1cc(Nc2nc(Nc3cc(C)c(C4CCC(=O)CC4)cc3C)ncc2C(F)(F)F)n[nH]1 [Compound 40, 4-(2,5-dimethyl-4-(4-(5-methyl-1H-pyrazol-3-ylamino)-5-(trifluoromethyl)pyrimidin-2-ylamino)phenyl)cyclohexanone]",49
9,"Cc1cc(Nc2nc(Nc3cc(C)c([C@H]4CC[C@H](O)CC4)cc3C)ncc2C(F)(F)F)n[nH]1 [Compound 41, trans-4-(2,5-dimethyl-4-(4-(5-methyl-1H-pyrazol-3-ylamino)-5-(trifluoromethyl)pyrimidin-2-ylamino)phenyl)cyclohexanol]",25
10,"Cc1cc(Nc2nc(Nc3cc(C)c([C@H]4CC[C@@H](O)CC4)cc3C)ncc2C(F)(F)F)n[nH]1 [Compound 42, cis-4-(2,5-dimethyl-4-(4-(5-methyl-1H-pyrazol-3-ylamino)-5-(trifluoromethyl)pyrimidin-2-ylamino)phenyl)cyclohexanol]",53
11,"Cc1cc(Nc2nc(Nc3cc(C)c([C@H]4CC[C@@H](N5CCCCC5)CC4)cc3C)ncc2Cl)n[nH]1 [Compound 43, Cis-5-chloro-N2-(2,5-dimethyl-4-(4-(pipcridin-1-yl)cyclohexyl)phenyl)-N4-(5-methyl-1H-pyrazol-3-yl)pyrimidine-2,4-diamine]",8
12,"Cc1cc(Nc2nc(Nc3cc(C)c([C@H]4CC[C@H](N5CCCCC5)CC4)cc3C)ncc2Cl)n[nH]1 [Compound 44, Trans-5-chloro-N2-(2,5-dimethyl-4-(4-(piperidin-1-yl)cyclohexyl)phenyl)-N4-(5-methyl-1H-pyrazol-3-yl)pyrimidine-2,4-diamine]",7
13,"Cc1cc(Nc2nc(Nc3cc(C)c([C@H]4CC[C@H](O)CC4)cc3C)ncc2Cl)n[nH]1 [Compound 45, trans-4-(4-(5-chloro-4-(5-rnethyl-1H-pyrazol-3-ylamino)pyrimidin-2-ylamino)-2,5-dimethylphenyl)cyclohexanol]",14
14,"Cc1cc(Nc2nc(Nc3cc(C)c([C@H]4CC[C@H](NC5CC5)CC4)cc3C)ncc2Cl)n[nH]1 [Compound 46, Trans-5-chloro-N2-(4-(4-(cyclopropylamino)cyclohexyl)-2,5-dimethylphenyl)-N4-(5-methyl-1H-pyrazol-3-yl)pyrimidine-2,4-diamine]",16
15,"Cc1cc(Nc2nc(Nc3cc(C)c([C@H]4CC[C@@H](NC5CC5)CC4)cc3C)ncc2Cl)n[nH]1 [Compound 47, Cis-5-chloro-N2-(4-(4-(cyclopropylamino)cyclohexyl)-2,5-dimethylphenyl)-N4-(5-methyl-1H-pyrazol-3-yl)pyrimidine-2,4-diamine]",17
16,"Cc1cc(Nc2nc(Nc3cc(C)c([C@H]4CC[C@@H](N5CCCCC5)CC4)cc3F)ncc2Cl)n[nH]1 [Compound 48, Cis-5-chloro-N2-(2-fluoro-5-methyl-4-(4-(piperidin-1-yl)cyclohexyl)phenyl)-N4-(5-methyl-1H-pyrazol-3-yl)pyrimidine-2,4-diamine]",21
17,"Cc1cc(Nc2nc(Nc3cc(C)c([C@H]4CC[C@H](N5CCCCC5)CC4)cc3F)ncc2Cl)n[nH]1 [Compound 49, Trans-5-chloro-N2-(2-fluoro-5-methyl-4-(4-(piperidin-1-yl)cyclohexyl)phenyl)-N4-(5-methyl-1H-pyrazol-3-yl)pyrimidine-2,4-diamine]",40
18,"Cc1cc(Nc2nc(Nc3cc(C)c([C@H]4CC[C@H](N5CCOCC5)CC4)cc3F)ncc2Cl)n[nH]1 [Compound 50, Trans-5-chloro-N2-(2-fluoro-5-methyl-4-(4-morpholinocyclohexyl)phenyl)-N4-(5-methyl-1H-pyrazol-3-yl)pyrimidine-2,4-diamine]",31
19,"Cc1cc(Nc2nc(Nc3cc(C)c([C@H]4CC[C@@H](N5CCOCC5)CC4)cc3F)ncc2Cl)n[nH]1 [Compound 51, Cis-5-chloro-N2-(2-fluoro-5-methyl-4-(4-morpholinocyclohexyl)phenyl)-N4-(5-methyl-1H-pyrazol-3-yl)pyrimidine-2,4-diamine]",400
20,"Cc1cc(Nc2nc(Nc3cc(C)c([C@H]4CC[C@@H](N5CCN(C)CC5)CC4)cc3F)ncc2Cl)n[nH]1 [Compound 52, Cis-5-chloro-N2-(2-fluoro-5-methyl-4-(4-(4-methylpiperazin-1-yl)cyclohexyl)phenyl)-N4-(5-methyl-1H-pyrazol-3-yl)pyrimidine-2,4-diamine]",24
21,"Cc1cc(Nc2nc(Nc3cc(C)c([C@H]4CC[C@H](N5CCN(C)CC5)CC4)cc3F)ncc2Cl)[nH]n1 [Compound 53, Trans-5-chloro-N2-(2-fluoro-5-methyl-4-(4-(4-methylpiperazin-1-yl)cyclohexyl)phenyl)-N4-(5-methyl-1H-pyrazol-3-yl)pyrimidine-2,4-diamine]",25
22,"Cc1cc(Nc2nc(Nc3cc(C)c([C@H]4CC[C@@H](N5CC[C@H](O)C5)CC4)cc3F)ncc2Cl)n[nH]1 [Compound 54, (S)-1-((Cis)-4-(4-(5-chloro-4-(5-methyl-1H-pyrazol-3-ylamino)pyrimidin-2-ylamino)-5-fluoro-2-methylphenyl)cyclohexyl)pyrrolidin-3-ol]",16
